{"source": "patent US10383885B2", "about": "“Method for treating or preventing dry eyes” (priority 2015, dated 2019)", "key": {"BAC induced dry eye mice [1]": {"tested_on": "BAC induced dry eye mice", "assay": "Benzalkonium chloride induced dry eye mice model (2), phenol red thread tear test", "assay_type": "in vivo, Male BALB/c mice", "conditions": "0.3% BAC day 1 to 7; eye drops 5, 10 μg/ml thrice-daily, day 15 to 19; topical, right eye", "method": "Benzalkonium Chloride Induced Dry Eye Mice Model (2)\n(§1) Male BALB/c mice (9 weeks) was treated with thrice-daily (9:00, 13:30, 18:00) topical administration of 5 ul of 0.3% BAC in right eyes, mice was treated with PBS as control group, from day 1 to 7. And compound A (5, 10 μg/ml) was treated with thrice-daily (9:00, 13:30, 18:00) topical administration of 5 ul in right eyes, and PBS as control group, from day 15 to 19.\n(§2) Phenol red thread tear test was used. The thread is yellow (acidic) and when it comes in contact with tears it changes to a light red color. Forceps were used to insert folded portion of the thread into the palpebral conjunctiva of the eye ⅓ of the distance from the lateral canthus of the lower eye lid. After 15 s, the thread was removed and the entire wet (Red) portion was measured. The phenol red thread test was on 14, 18, 20 day. The results are shown in FIG. 3. *P<0.05, **P<0.01 compared to the control, Student's t-test. Data are expressed as mean±SD (n=5-6)."}, "NGF": {"tested_on": "NGF", "assay": "Tear NGF protein expression in BAC induced dry eye mice (western blot)", "assay_type": "in vivo", "conditions": "tear of BAC induced dry eye mice; eye drops 2, 5 or 10 μg/ml three times a day for 10 days", "method": "Tear was collected from right eye of BAC induced dry eye mice by 10 μl PBS wash. Mice treated eyes drop of PBS as control and different concentration Compound A for 10 days. NGF protein was a positive control. 5 μl tear volume used in western blot.\nThe total protein concentration was determined by 1×Braford assay. To denature, use a loading buffer(7 ml 0.5M Tris pH6.8, 3 ml Glycerol, 1 g 10% SDS, 0.93 g DTT, […] 0.05% bromophenol blue, 10 ml), and boil the mixture at 95-100° C. for 5 minutes. Total protein was loaded 20-40 μg per mini-gel (12% SDS-polyacrylamide gel) well for electrophoresis. Then transfer the proteins into polyvinylidene difluoride membrane and blocking the membrane with 5-10% nonfat dried milk in TTBS. The membrane was incubated with the primary antibody overnight at 4° C. by shaking. Wash the membrane several times in TTBS to remove residual primary antibody. And the membrane was incubated with secondary antibody for 2 hours at room temperature.\nThe protein levels were determined by chemiluminescene detection system and analysis by Imagequant software. The results are shown in FIG. 4. *P<0.05, **P<0.01, ***P<0.001 compared to the control, Student's t-test. Data are expressed as mean±SD (n=4)."}, "BAC induced dry eye mice [2]": {"tested_on": "BAC induced dry eye mice", "assay": "Benzalkonium chloride induced dry eye mice model (1), phenol red thread tear test", "assay_type": "in vivo, Male BALB/c mice", "conditions": "0.3% BAC day 1 to 7; eye drops 2, 5 or 10 μg/ml three times a day, day 8 to 19; topical, right eye", "method": "Benzalkonium Chloride Induced Dry Eye Mice Model (1)\nas §1, with “mice (6” for “mice (9”, “A (2, 5,” for “A (5,”, “day 8” for “day 15”\nas §2, with “7, 11, 15, 19” for “14, 18, 20”, “2.” for “3.”"}, "[3]": {"tested_on": "Human Corneal Epithelial (HCE) cells", "assay": "Benzalkonium chloride cell damage model in HCE cells (trypan blue cell count)", "assay_type": "cell-based", "conditions": "HCE cells damaged with 0.0005% benzalkonium chloride for 24 hours, then 0.4, 2, 10 μg/ml compound for 48 hours", "method": "Benzalkonium Chloride Cell Damage Model\nThe Human Corneal Epithelial (HCE) cells were seeded on a 6-well plate 5×10^5 cells with 10% FCS in DMEM/F12 for 24 hours. After cell attachment, medium was removed and changed into 0.0005% Benzalkonium chloride for 24 hours, then washed with PBS and treat with different concentrations 0.4, 2, 10 μg/ml of compound of Formula (I) (compound A) for 48 hours. At the end the cells were trypsinized and centrifuge 1000 rpm for 5 minutes, the supernatant was removed, added 1 ml of DMEM/F12 medium to resuspend the cells, followed by 0.4% trypan blue and the cell culture medium were 1:3 dilution, the number of cells were calculate under a microscope to observe the survivability of different concentrations treatment. The results are shown in FIG. 1. *P<0.05, **P<0.01 compared to the 0 μg/ml compound A group, Student's t-test. Data are expressed as mean±SD (n=3)."}}, "data": [{"smiles": "OC[C@H]1O[C@@H](Oc2c(O)cc(O)cc2/C=C/c2ccc(O)cc2)[C@H](O)[C@@H](O)[C@@H]1O", "note": "[compound of Formula (I), 2,3,5,4′-tetrahydroxystilbene 2-O-β-D-glucopyranoside]", "values": [{"measurement": "tear secretion", "setting": "BAC induced dry eye mice [1]", "value": "improves tear secretion"}, {"measurement": "NGF expression level", "setting": "NGF", "value": "increased the NGF gene expression level"}, {"measurement": "tear secretion", "setting": "BAC induced dry eye mice [2]", "value": "restored tear secretion"}, {"measurement": "cell viability after BAC damage", "setting": "[3]", "value": "increased cell viability"}]}]}
